Results from PubChem BioAssay AID1259407 (Chemical Carcinogenesis Research Information System (CCRIS), 2018).
Active and inactive are the calls of the source. No rule for the calls is given here.

System: CCRIS mutagenicity, Ames/micronucleus/aberration tests
Assay: CCRIS mutagenicity studies
[1] = Test System: AMES SALMONELLA TYPHIMURIUM, Strain/Indicator: TA98, Metabolic Activation: NONE, Method: STANDARD PLATE
[2] = Test System: AMES SALMONELLA TYPHIMURIUM, Strain/Indicator: TA100, Metabolic Activation: NONE, Method: STANDARD PLATE
[3] = Test System: AMES SALMONELLA TYPHIMURIUM, Strain/Indicator: TA98, Metabolic Activation: NONE, Method: PREINCUBATION
[4] = Test System: AMES SALMONELLA TYPHIMURIUM, Strain/Indicator: TA100, Metabolic Activation: NONE, Method: PREINCUBATION

Structure (SMILES): [N-]=[N+]=NC[C@@H](O)[C@H](O)[C@H](O)[C@@H](O)C(=O)O
- mutagenic call [1]: inactive; negative
- mutagenic call [2]: active; positive

Structure (SMILES): O=Cc1cn([C@@H]2O[C@H](CO)[C@@H](O)[C@H]2O)c(=O)[nH]c1=O
- mutagenic call (Test System: CHINESE HAMSTER V-79, Strain/Indicator: V-79 (HPRT)/6-THIOGUANINE, Metabolic Activation: NONE, Method: STANDARD PLATE): inactive; negative

Structure (SMILES): CCCCCCC(=O)OCC
- mutagenic call (Test System: AMES SALMONELLA TYPHIMURIUM, Strain/Indicator: TA97, Metabolic Activation: NONE, Method: PREINCUBATION): inactive; negative
- mutagenic call (Test System: AMES SALMONELLA TYPHIMURIUM, Strain/Indicator: TA97, Metabolic Activation: RAT, LIVER, S-9, AROCLOR 1254, Method: PREINCUBATION): inactive; negative
- mutagenic call (Test System: AMES SALMONELLA TYPHIMURIUM, Strain/Indicator: TA102, Metabolic Activation: NONE, Method: PREINCUBATION): inactive; negative
- mutagenic call (Test System: AMES SALMONELLA TYPHIMURIUM, Strain/Indicator: TA102, Metabolic Activation: RAT, LIVER, S-9, AROCLOR 1254, Method: PREINCUBATION): inactive; negative

Structure (SMILES): O[C@@H]1C=Cc2c(cc3ccc4cccc5ccc2c3c45)[C@H]1O
- mutagenic call (Test System: CHINESE HAMSTER V-79, Strain/Indicator: V-79/OUABAIN, Metabolic Activation: HAMSTER, EMBRYO, CELL-MEDIATED, Method: STANDARD PLATE): active; positive

Structure (SMILES): CN(C)c1ncnc2nc[nH]c12
- mutagenic call [3]: inactive; negative
- mutagenic call (Test System: AMES SALMONELLA TYPHIMURIUM, Strain/Indicator: TA98, Metabolic Activation: RAT, LIVER, S9, Method: PREINCUBATION): inactive; negative
- mutagenic call [4]: inactive; negative
- mutagenic call (Test System: AMES SALMONELLA TYPHIMURIUM, Strain/Indicator: TA100, Metabolic Activation: RAT, LIVER, S9, Method: PREINCUBATION): inactive; negative
- mutagenic call (Test System: AMES SALMONELLA TYPHIMURIUM, Strain/Indicator: TA1535, Metabolic Activation: NONE, Method: PREINCUBATION): active; positive
- mutagenic call (Test System: AMES SALMONELLA TYPHIMURIUM, Strain/Indicator: TA1535, Metabolic Activation: RAT, LIVER, S9, Method: PREINCUBATION): active; positive
- mutagenic call (Test System: AMES SALMONELLA TYPHIMURIUM, Strain/Indicator: TA1537, Metabolic Activation: NONE, Method: PREINCUBATION): inactive; negative
- mutagenic call (Test System: AMES SALMONELLA TYPHIMURIUM, Strain/Indicator: TA1537, Metabolic Activation: RAT, LIVER, S9, Method: PREINCUBATION): inactive; negative
- mutagenic call (Test System: E. COLI, Strain/Indicator: WP2UVRA, Metabolic Activation: NONE, Method: PREINCUBATION): inactive; negative
- mutagenic call (Test System: E. COLI, Strain/Indicator: WP2UVRA, Metabolic Activation: RAT, LIVER, S9, Method: PREINCUBATION): inactive; negative

Structure (SMILES): COc1cc(C(=O)OCCCN2CCCN(CCCOC(=O)c3cc(OC)c(OC)c(OC)c3)CC2)cc(OC)c1OC
- mutagenic call (Test System: AMES SALMONELLA TYPHIMURIUM, Strain/Indicator: TA98, Metabolic Activation: NONE): inactive; negative
- mutagenic call (Test System: AMES SALMONELLA TYPHIMURIUM, Strain/Indicator: TA98, Metabolic Activation: RAT, LIVER, S-9, PHENOBARBITAL AND 5,6-BENZOFLAVONE): inactive; negative
- mutagenic call (Test System: AMES SALMONELLA TYPHIMURIUM, Strain/Indicator: TA100, Metabolic Activation: NONE): inactive; negative
- mutagenic call (Test System: AMES SALMONELLA TYPHIMURIUM, Strain/Indicator: TA100, Metabolic Activation: RAT, LIVER, S-9, PHENOBARBITAL AND 5,6-BENZOFLAVONE): inactive; negative
- mutagenic call (Test System: AMES SALMONELLA TYPHIMURIUM, Strain/Indicator: TA1535, Metabolic Activation: NONE): inactive; negative
- mutagenic call (Test System: AMES SALMONELLA TYPHIMURIUM, Strain/Indicator: TA1535, Metabolic Activation: RAT, LIVER, S-9, PHENOBARBITAL AND 5,6-BENZOFLAVONE): inactive; negative
- mutagenic call (Test System: AMES SALMONELLA TYPHIMURIUM, Strain/Indicator: TA1537, Metabolic Activation: NONE): inactive; negative
- mutagenic call (Test System: AMES SALMONELLA TYPHIMURIUM, Strain/Indicator: TA1537, Metabolic Activation: RAT, LIVER, S-9, PHENOBARBITAL AND 5,6-BENZOFLAVONE): inactive; negative
- mutagenic call (Test System: E. COLI, Strain/Indicator: WP2 UVRA, Metabolic Activation: NONE): inactive; negative
- mutagenic call (Test System: E. COLI, Strain/Indicator: WP2 UVRA, Metabolic Activation: RAT, LIVER, S-9, PHENOBARBITAL AND 5,6-BENZOFLAVONE): inactive; negative

Structure (SMILES): CCN(CC)S(=O)(=O)c1ccc(NC(C)=O)cc1
- mutagenic call [3]: inactive; negative
- mutagenic call (Test System: AMES SALMONELLA TYPHIMURIUM, Strain/Indicator: TA98, Metabolic Activation: RAT, LIVER, S-9, AROCLOR 1254, Method: PREINCUBATION): inactive; negative
- mutagenic call [4]: inactive; negative
- mutagenic call (Test System: AMES SALMONELLA TYPHIMURIUM, Strain/Indicator: TA100, Metabolic Activation: RAT, LIVER, S-9, AROCLOR 1254, Method: PREINCUBATION): inactive; negative

Structure (SMILES): COC1=CC(=O)C=CC1=Nc1c2ccccc2nc2ccccc12
- mutagenic call (Test System: AMES SALMONELLA TYPHIMURIUM, Strain/Indicator: TA1537, Metabolic Activation: NONE, Method: STANDARD PLATE): inactive; negative

Structure (SMILES): O=NN1CN(N=O)CN(N=O)C1
- mutagenic call (Test System: Ames Salmonella typhimurium, Strain/Indicator: TA97a, Metabolic Activation: None, Method: Preincubation): inactive; negative
- mutagenic call (Test System: Ames Salmonella typhimurium, Strain/Indicator: TA97a, Metabolic Activation: Rat, Liver, S-9, Aroclor 1254, Method: Preincubation): active; positive
- mutagenic call (Test System: Ames Salmonella typhimurium, Strain/Indicator: TA98, Metabolic Activation: Rat, Liver, S-9, Aroclor 1254, Method: Preincubation): inactive; negative
- mutagenic call (Test System: Ames Salmonella typhimurium, Strain/Indicator: TA100, Metabolic Activation: Rat, Liver, S-9, Aroclor 1254, Method: Preincubation): inactive; negative
- mutagenic call (Test System: Ames Salmonella typhimurium, Strain/Indicator: TA102, Metabolic Activation: Rat, Liver, S-9, Aroclor 1254, Method: Preincubation): active; positive

Structure (SMILES): C=CCCCCCCCCCCCCC
- mutagenic call (Test System: AMES SALMONELLA TYPHIMURIUM, Strain/Indicator: TA98, Metabolic Activation: MOUSE, LIVER, S-9, Method: STANDARD PLATE): inactive; negative
- mutagenic call [1]: inactive; negative
- mutagenic call (Test System: AMES SALMONELLA TYPHIMURIUM, Strain/Indicator: TA100, Metabolic Activation: MOUSE, LIVER, S-9, Method: STANDARD PLATE): inactive; negative
- mutagenic call [2]: inactive; negative
- mutagenic call (Test System: AMES SALMONELLA TYPHIMURIUM, Strain/Indicator: TA1535, Metabolic Activation: NONE, Method: STANDARD PLATE): inactive; negative
- mutagenic call (Test System: AMES SALMONELLA TYPHIMURIUM, Strain/Indicator: TA1538, Metabolic Activation: NONE, Method: STANDARD PLATE): inactive; negative

Structure (SMILES): O=c1oc2cccc3ccc4c5ccccc5cc1c4c32
- mutagenic call [1]: inactive; negative
- mutagenic call (Test System: AMES SALMONELLA TYPHIMURIUM, Strain/Indicator: TA98, Metabolic Activation: RAT, LIVER, S-9, AROCLOR 1254, Method: STANDARD PLATE): active; positive
- mutagenic call (Test System: AMES SALMONELLA TYPHIMURIUM, Strain/Indicator: TA100, Metabolic Activation: RAT, LIVER, S-9, AROCLOR 1254, Method: STANDARD PLATE): active; positive

Structure (SMILES): CS(=O)(=O)Nc1ccc([N+](=O)[O-])cc1Oc1ccccc1
- mutagenic call (End Point: IN VIVO CHROMOSOMAL ABERRATIONS, Test System: BONE MARROW CELLS, Species: MOUSE, Strain/Sex: SWISS/MALE, FEMALE, Route: GAVAGE (TEST MATERIAL SOLVENT: WATER)): active; positive (structural changes)
